Results as given in US20250282810A1, “Chemical Synthesis Method and Application of V. Cholerae Serotype O100 O-Antigen Oligosaccharides” (priority 2024, published 2025).

Test system: rabbit serum IgG antibodies
Assay: Glycan microarray screening of synthetic oligosaccharides with rabbit serum
Format: binding
Settings: oligosaccharides printed at 0.1 mM and 0.5 mM, LPS at 1 mg/mL and 5 mg/mL, rabbit serum 1:200, cy3 goat anti-rabbit IgG 1:400
Procedure: . Then, a microarray spotter was used for printing distribution grids shown in FIG. 9B onto the area of a microarray (9 mm long*9 mm wide), and incubation was performed overnight at room temperature and 65% humidity to covalently bind oligosaccharide fragments to the microarray. After incubation, a mixed solution (pH=9) of […] ethanolamine and […] sodium phosphate was used for processing at 50° C. for 1 h, and then, ultrapure water was used for washing.
The glycan microarray was blocked with a PBS solution containing 3% BSA at room temperature for 1 h. The glycan microarray was washed once with a PBS solution containing 0.1% Tween 20 (PBST solution), washed twice with a PBS solution, and spin-dried, and the glycan microarray was loaded into a 16-well incubator (ProPlate). 120 microliters of rabbit serum sample diluted in a ratio of 1:200 in a PBS solution containing 1% BSA was added to each well, and incubated overnight in a moist chamber at 4° C. in the dark to allow rabbit serum IgG antibodies identifying the synthetic oligosaccharide fragments to bind to the synthetic oligosaccharides on the glycan microarray, and the sample was removed and washed three times with 200 microliters of PBST solution to remove unbound serum IgG antibodies. […]

Q: Which “binding ability to IgG antibodies (fluorescence signals)” value does the source give for D-FucNAc [synthetic sugar 6*] here?
A: Its value is “did not bind to antibodies”.
